Measured values: patent US9580463B2 (BRISTOL-MYERS SQUIBB COMPANY, priority 2013, dated 2017)
pEC50: −log10 of the molar value.

Legend:
[1] = system: HCV genotype 1a (H77 strain) replicon in HUH-7 cells; experiment: HCV replicon luciferase reporter assay, genotype 1a; type: cell-based; conditions: Hepatitis C virus, 72 h, genotype 1a replicon, 3 days incubation, read-out: LE_1a (EC50, range)
Description: An HCV replicon whole cell system was established as described by Lohmann V, Korner F, Koch J, Herian U, Theilmann L, Bartenschlager R., Science 285(5424):110-3 (1999) and modified to introduce a luciferase reporter, as first described by Krieger et al (Krieger N, Lohmann V, and Bartenschlager R, J. Virol. 75(10):4614-4624 (2001)). CDNA encoding a humanized form of the Renilla luciferase gene and a linker sequence fused directly to the 3′-end of the luciferase gene were introduced into the replicon construct using an Asc1 restriction site located in core, directly upstream of the neomycin marker gene. The adaptive mutation at position 1179 (serine to isoleucine) was also introduced (Blight K J, Kolykhalov, A A, Rice, C M, Science 290(5498):1972-1974). A stable cell line constitutively expressing this HCV replicon construct was generated by first linearizing plasmid DNAs with ScaI. RNA transcripts were synthesized in vitro using the T7 MegaScript transcription kit (Ambion, Austin, Tex.) according to manufacturer's directions. In vitro transcripts of the cDNA were transfected into the human hepatoma cell line, HUH-7. […] Resulting cell lines were characterized for positive and negative strand RNA production and protein production over time.
A stable HCV replicon luciferase reporter cell line representing the genotype 1a H77 strain (Yanagi M, Purcell R H, Emerson S U, et al. Transcripts from a single full-length cDNA clone of hepatitis C virus are infectious when directly transfected into the liver of a chimpanzee. Proc Natl Acad Sci USA 1997; 94(16):8738-8743) was generated as described previously for the genotype 1b (Con1) replicon luciferase cell line. The replicon construct was modified by introducing mutations were introduced into the genes encoding the NS3 helicase domain (proline replaced by leucine at position 1496) and NS5A (serine to isoleucine at position 2204) to improve replication in cell culture.
HCV replicon luciferase assays were developed to monitor the inhibitory effects of compounds described in the disclosure on HCV genotypes 1a and 1b viral replication. HUH-7 cells, constitutively expressing the HCV replicon, were grown in Dulbecco's Modified Eagle Media (DMEM) (Gibco-BRL) containing 10% Fetal calf serum (FCS) (Sigma) and 1 mg/mL G418 (Gibco-BRL). Compounds were serially diluted 3 folds in DMSO for a twenty-point titration and subsequently transferred to sterile 384-well tissue-culture treated plates (Corning cat #3571). The plates were then seeded with 50 μL of cells at a density of 3.0×10^3 cells/well in DMEM containing 4% FCS (final DMSO concentration at 0.5%). After 3 days incubation at 37° C., cells were analyzed for Renilla Luciferase activity using the EnduRen as substrate (Promega cat #E6485). The EnduRen substrate was diluted in DMEM and then added to the plates to a final concentration of 7.5 μM. The plates were incubated for 2 hrs at 37° C. and then read immediately for 30 seconds with Viewlux Imager (PerkinElmer) using a luminescence program. To assess cytotoxicity of compounds, CC50 values were generated by multiplexing the EnduRen-containing plates with Cell Titer-Blue (Promega, cat # G8082). Cell-Titer Blue (3 μL) was added to each well and incubated for 8 hrs at 37° C. The fluorescence signal from each well was read, with an excitation wavelength at 525/10 nm and an emission wavelength of 598/10 nm, using the Viewlux Imager.
The EC50 values for compounds were calculated by using a four-parameter logistic equation: y=A+((B−A)/(1+((C/x)^D))), where A and B denotes minimal and maximal % inhibition, respectively, C is the EC50, D is the hill slope and x represents compound concentration.

[2] = system: HCV genotype 1b (Con1) replicon in HUH-7 cells; experiment: HCV replicon luciferase reporter assay, genotype 1b; type: cell-based; conditions: Hepatitis C virus, 72 h, genotype 1b replicon, 3 days incubation, read-out: LE_1b (EC50, range)
Summary of the method: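 Twenty-point, threefold compound titrations (0.5% DMSO) were incubated 3 days at 37 °C with 3.0×10^3 HUH-7 cells/well in 4% FCS. The cells stably carried luciferase replicons: genotype 1b Con1 (S1179I) or 1a H77 (NS3 P1496L, NS5A S2204I). Renilla signal was read after 2 h with 7.5 μM EnduRen, and EC50 was taken from a four-parameter logistic fit. Cytotoxicity (CC50) was measured by Cell Titer-Blue, 8 h.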

COC[C@@H]1CCCC/C=C\[C@@H]2C[C@@]2(C(=O)NS(=O)(=O)C2(C)CC2)NC(=O)[C@@H]2C[C@@H](Oc3ncc(OC)c4ccccc34)CN2C(=O)[C@H]1NC(=O)OC(C)(C)C [Compound 1007, tert-butyl ((2R,6S,7R,13aS,14aR,16aS,Z)-2-((4-methoxyisoquinolin-1-yl)oxy)-7-(methoxymethyl)-14a-(((1-methylcyclopropyl)sulfonyl)carbamoyl)-5,16-dioxo-1,2,3,5,6,7,8,9,10,11,13a,14,14a,15,16,16a-hexadecahydrocyclopropa[e]pyrrolo[1,2-a][1,4]diazacyclopentadecin-6-yl)carbamate]
pEC50 [1]: 8.30 to 9.00
pEC50 [2]: 9.00 to 9.29

COC[C@@H]1C[C@@H](C)CC/C=C\[C@@H]2C[C@@]2(C(=O)NS(=O)(=O)C2CC2)NC(=O)[C@@H]2C[C@@H](Oc3nccc4cc(OC)ccc34)CN2C(=O)[C@H]1NC(=O)OC(C)(C)C [Compound 1008, tert-butyl ((2R,6S,7R,9S,13aS,14aR,16aS,Z)-14a-((cyclopropylsulfonyl)carbamoyl)-2-((6-methoxyisoquinolin-1-yl)oxy)-7-(methoxymethyl)-9-methyl-5,16-dioxo-1,2,3,5,6,7,8,9,10,11,13a,14,14a,15,16,16a-hexadecahydrocyclopropa[e]pyrrolo[1,2-a][1,4]diazacyclopentadecin-6-yl)carbamate]
pEC50 [1]: 8.30 to 9.00
pEC50 [2]: 8.30 to 9.00

COC[C@@H]1C[C@H](C)CC/C=C\[C@@H]2C[C@@]2(C(=O)NS(=O)(=O)C2CC2)NC(=O)[C@@H]2C[C@@H](Oc3nccc4cc(OC)ccc34)CN2C(=O)[C@H]1NC(=O)OC(C)(C)C [Compound 1009, tert-butyl ((2R,6S,7R,9R,13aS,14aR,16aS,Z)-14a-((cyclopropylsulfonyl)carbamoyl)-2-((6-methoxyisoquinolin-1-yl)oxy)-7-(methoxymethyl)-9-methyl-5,16-dioxo-1,2,3,5,6,7,8,9,10,11,13a,14,14a,15,16,16a-hexadecahydrocyclopropa[e]pyrrolo[1,2-a][1,4]diazacyclopentadecin-6-yl)carbamate]
pEC50 [1]: 8.30 to 9.00
pEC50 [2]: 8.30 to 9.00

COC[C@@H]1C[C@H](C)CC/C=C\[C@@H]2C[C@@]2(C(=O)NS(=O)(=O)C2(C)CC2)NC(=O)[C@@H]2C[C@@H](Oc3ncc(OC)c4ccccc34)CN2C(=O)[C@H]1NC(=O)OC(C)(C)C [Compound 1010, tert-butyl ((2R,6S,7R,9R,13aS,14aR,16aS,Z)-2-((4-methoxyisoquinolin-1-yl)oxy)-7-(methoxymethyl)-9-methyl-14a-(((1-methylcyclopropyl)sulfonyl)carbamoyl)-5,16-dioxo-1,2,3,5,6,7,8,9,10,11,13a,14,14a,15,16,16a-hexadecahydrocyclopropa[e]pyrrolo[1,2-a][1,4]diazacyclopentadecin-6-yl)carbamate]
pEC50 [1]: 9.00 to 9.29
pEC50 [2]: 9.30 to 10.00

COC[C@@H]1C[C@@H](C)CC/C=C\[C@@H]2C[C@@]2(C(=O)NS(=O)(=O)C2(C)CC2)NC(=O)[C@@H]2C[C@@H](Oc3ncc(OC)c4ccccc34)CN2C(=O)[C@H]1NC(=O)OC(C)(C)C [Compound 1011, tert-butyl ((2R,6S,7R,9S,13aS,14aR,16aS,Z)-2-((4-methoxyisoquinolin-1-yl)oxy)-7-(methoxymethyl)-9-methyl-14a-(((1-methylcyclopropyl)sulfonyl)carbamoyl)-5,16-dioxo-1,2,3,5,6,7,8,9,10,11,13a,14,14a,15,16,16a-hexadecahydrocyclopropa[e]pyrrolo[1,2-a][1,4]diazacyclopentadecin-6-yl)carbamate]
pEC50 [1]: 8.30 to 9.00
pEC50 [2]: 8.30 to 9.00

COC[C@@H]1C[C@H](C)CC/C=C\[C@@H]2C[C@@]2(C(=O)NS(=O)(=O)C2CC2)NC(=O)[C@@H]2C[C@@H](Oc3ncc(OC)c4ccccc34)CN2C(=O)[C@H]1NC(=O)OC(C)(C)C(F)(F)F [Compound 1012, 1,1,1-trifluoro-2-methylpropan-2-yl ((2R,6S,7R,9R,13aS,14aR,16aS,Z)-14a-((cyclopropylsulfonyl)carbamoyl)-2-((4-methoxyisoquinolin-1-yl)oxy)-7-(methoxymethyl)-9-methyl-5,16-dioxo-1,2,3,5,6,7,8,9,10,11,13a,14,14a,15,16,16a-hexadecahydrocyclopropa[e]pyrrolo[1,2-a][1,4]diazacyclopentadecin-6-yl)carbamate]
pEC50 [1]: 9.00 to 9.29
pEC50 [2]: 9.30 to 10.00

COC[C@@H]1C[C@@H](C)CC/C=C\[C@@H]2C[C@@]2(C(=O)NS(=O)(=O)C2CC2)NC(=O)[C@@H]2C[C@@H](Oc3ncc(OC)c4ccccc34)CN2C(=O)[C@H]1NC(=O)OC(C)(C)C(F)(F)F [Compound 1013, 1,1,1-trifluoro-2-methylpropan-2-yl ((2R,6S,7R,9S,13aS,14aR,16aS,Z)-14a-((cyclopropylsulfonyl)carbamoyl)-2-((4-methoxyisoquinolin-1-yl)oxy)-7-(methoxymethyl)-9-methyl-5,16-dioxo-1,2,3,5,6,7,8,9,10,11,13a,14,14a,15,16,16a-hexadecahydrocyclopropa[e]pyrrolo[1,2-a][1,4]diazacyclopentadecin-6-yl)carbamate]
pEC50 [1]: 8.30 to 9.00
pEC50 [2]: 8.30 to 9.00

COC[C@@H]1C[C@H](C)CC/C=C\[C@@H]2C[C@@]2(C(=O)NS(=O)(=O)C2(C)CC2)NC(=O)[C@@H]2C[C@@H](Oc3nccc4cc(OC)ccc34)CN2C(=O)[C@H]1NC(=O)OC(C)(C)C(F)(F)F [Compound 1014, 1,1,1-trifluoro-2-methylpropan-2-yl ((2R,6S,7R,9R,13aS,14aR,16aS,Z)-2-((6-methoxyisoquinolin-1-yl)oxy)-7-(methoxymethyl)-9-methyl-14a-(((1-methylcyclopropyl)sulfonyl)carbamoyl)-5,16-dioxo-1,2,3,5,6,7,8,9,10,11,13a,14,14a,15,16,16a-hexadecahydrocyclopropa[e]pyrrolo[1,2-a][1,4]diazacyclopentadecin-6-yl)carbamate]
pEC50 [1]: 8.30 to 9.00
pEC50 [2]: 9.00 to 9.29

COC[C@@H]1C[C@@H](C)CC/C=C\[C@@H]2C[C@@]2(C(=O)NS(=O)(=O)C2(C)CC2)NC(=O)[C@@H]2C[C@@H](Oc3nccc4cc(OC)ccc34)CN2C(=O)[C@H]1NC(=O)OC(C)(C)C(F)(F)F [Compound 1015, 1,1,1-trifluoro-2-methylpropan-2-yl ((2R,6S,7R,9S,13aS,14aR,16aS,Z)-2-((6-methoxyisoquinolin-1-yl)oxy)-7-(methoxymethyl)-9-methyl-14a-(((1-methylcyclopropyl)sulfonyl)carbamoyl)-5,16-dioxo-1,2,3,5,6,7,8,9,10,11,13a,14,14a,15,16,16a-hexadecahydrocyclopropa[e]pyrrolo[1,2-a][1,4]diazacyclopentadecin-6-yl)carbamate]
pEC50 [1]: 8.30 to 9.00
pEC50 [2]: 8.30 to 9.00
